According to PubChem BioAssay AID248 (DTP/NCI, 2004):
Several values for one entry are separate records, joined by “and”; a condition that tells them apart may be missing. Equal entries are not always repeated. Toxic doses and inconclusive results are not listed. Rule as the data show it: active = T/C of 150% or more; inactive = T/C below 125%.

Tested on: L1210 leukemia ip in BDF1 mice, survival T/C
Experiment: NCI In Vivo Anticancer Drug Screen. Data for tumor model L1210 Leukemia (intraperitoneal) in B6D2F1 (BDF1) mice
Settings: endpoint: mean survival time, higher = longer survival
Outline: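 Mice bearing the transplanted tumor received compound or vehicle. Survival of the treated group was divided by that of the vehicle-treated control group to give the ratio.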

[1] = dose: 100.0 mg/kg/injection, schedule: Q04DX003 (ip), vehicle: saline
[2] = dose: 200.0 mg/kg/injection, schedule: Q04DX003 (ip), vehicle: saline
[3] = dose: 400.0 mg/kg/injection, schedule: Q04DX003 (ip), vehicle: saline
[4] = dose: 100.0 mg/kg/injection, schedule: Q01DX009 (ip), vehicle: saline with Tween-80
[5] = dose: 100.0 mg/kg/injection, schedule: Q04DX003 (ip), vehicle: saline with Tween-80
[6] = dose: 200.0 mg/kg/injection, schedule: Q01DX009 (ip), vehicle: saline with Tween-80
[7] = dose: 200.0 mg/kg/injection, schedule: Q04DX003 (ip), vehicle: saline with Tween-80
[8] = dose: 400.0 mg/kg/injection, schedule: Q01DX009 (ip), vehicle: saline with Tween-80
[9] = dose: 400.0 mg/kg/injection, schedule: Q04DX003 (ip), vehicle: saline with Tween-80
[10] = dose: 100.0 mg/kg/injection, schedule: Q01DX001 (ip), vehicle: saline
[11] = dose: 200.0 mg/kg/injection, schedule: Q01DX001 (ip), vehicle: saline
[12] = dose: 100.0 mg/kg/injection, schedule: Q01DX009 (ip), vehicle: Klucel (hydroxypropylcellulose) (HPC)
[13] = dose: 100.0 mg/kg/injection, schedule: Q04DX003 (ip), vehicle: Klucel (hydroxypropylcellulose) (HPC)
[14] = dose: 200.0 mg/kg/injection, schedule: Q04DX003 (ip), vehicle: Klucel (hydroxypropylcellulose) (HPC)
[15] = dose: 50.0 mg/kg/injection, schedule: Q01DX009 (ip), vehicle: saline with Tween-80

Measured: T/C

CCCCC(=O)NCCc1ccc2c([nH]c3ccccc32)c1C
inactive: [1] 96 % of control | [2] 104 % of control | [3] 96 % of control

CC[N+]1(C)CC2C3CCC(C)(O3)C2C1 (stereo not given)
inactive: dose: 44.0 mg/kg/injection, schedule: Q01DX Z (ip), vehicle: methylcellulose (MC) 104 % of control | dose: 66.0 mg/kg/injection, schedule: Q01DX Z (ip), vehicle: methylcellulose (MC) 98 % of control | dose: 100.0 mg/kg/injection, schedule: Q01DX Z (ip), vehicle: methylcellulose (MC) 104 % of control

COc1ccccc1C(=O)N/N=C/c1cccc2ccccc12
inactive: [4] 114 % of control | [5] 103 % of control | [6] 105 % of control | [7] 96 % of control | [8] 107 % of control | [9] 94 % of control

Cc1ccccc1C1(O)c2ccccc2-c2ccccc21
inactive: [5] 98 % of control | [7] 96 % of control | [9] 96 % of control

CCCCCCCC/C(C=O)=C\c1ccc(C)cc1
inactive: [10] 86 % of control | [11] 102 % of control | dose: 400.0 mg/kg/injection, schedule: Q01DX001 (ip), vehicle: saline 87 % of control

CCOc1ccccc1NC(=O)Nc1cccc(F)c1
inactive: [4] 104 % of control | [6] 96 % of control | [8] 93 % of control

COc1ccccc1NC(=O)Nc1ccccc1
inactive: [12] 94 % of control and 102 % of control | [13] 95 % of control | dose: 200.0 mg/kg/injection, schedule: Q01DX009 (ip), vehicle: Klucel (hydroxypropylcellulose) (HPC) 96 % of control and 97 % of control | [14] 93 % of control | dose: 400.0 mg/kg/injection, schedule: Q01DX009 (ip), vehicle: Klucel (hydroxypropylcellulose) (HPC) 96 % of control and 100 % of control | dose: 400.0 mg/kg/injection, schedule: Q04DX003 (ip), vehicle: Klucel (hydroxypropylcellulose) (HPC) 86 % of control

CC(C)(C)C(/C=N/N=C(N)N)=N\N=C(N)N
inactive: dose: 15.0 mg/kg/injection, schedule: Q01DX Z (ip), vehicle: methylcellulose (MC) 105 % of control | dose: 30.0 mg/kg/injection, schedule: Q01DX Z (ip), vehicle: methylcellulose (MC) 91 % of control | dose: 60.0 mg/kg/injection, schedule: Q01DX Z (ip), vehicle: methylcellulose (MC) 94 % of control | dose: 120.0 mg/kg/injection, schedule: Q01DX Z (ip), vehicle: methylcellulose (MC) 91 % of control | dose: 600.0 mg/kg/injection, schedule: Q01DX Z (oral), vehicle: methylcellulose (MC) 110 % of control | dose: 720.0 mg/kg/injection, schedule: Q01DX Z (oral), vehicle: methylcellulose (MC) 98 % of control

ClC1=CC2CCC(C2)C1Cl (stereo not given)
inactive: dose: 100.0 mg/kg/injection, schedule: Q01DX009 (ip), vehicle: saline 106 % of control | dose: 100.0 mg/kg/injection, schedule: Q04DX003 (ip), vehicle: acetone 88 % of control | dose: 200.0 mg/kg/injection, schedule: Q01DX009 (ip), vehicle: saline 102 % of control | dose: 200.0 mg/kg/injection, schedule: Q04DX003 (ip), vehicle: acetone 88 % of control | dose: 400.0 mg/kg/injection, schedule: Q01DX009 (ip), vehicle: saline 103 % of control | dose: 400.0 mg/kg/injection, schedule: Q04DX003 (ip), vehicle: acetone 90 % of control

O=c1oc(-c2ccc(Cl)cc2)nc2cc(Cl)ccc12
inactive: dose: 25.0 mg/kg/injection, schedule: Q01DX009 (ip), vehicle: saline with Tween-80 93 % of control | [15] 97 % of control | [4] 93 % of control

O=C1NC(c2ccc3ccccc3n2)Nc2ccccc21 (stereo not given)
inactive: dose: 50.0 mg/kg/injection, schedule: Q01DX009 (ip), vehicle: Klucel (hydroxypropylcellulose) (HPC) 92 % of control | [12] 93 % of control | dose: 150.0 mg/kg/injection, schedule: Q01DX009 (ip), vehicle: Klucel (hydroxypropylcellulose) (HPC) 90 % of control

Fc1cccc(N2CCOCC2)c1
inactive: dose: 50.0 mg/kg/injection, schedule: Q01DX001 (ip), vehicle: saline 101 % of control | [10] 93 % of control | [11] 101 % of control

O=[N+]([O-])c1ccc2c(c1)c(-c1cc(Cl)cc(Cl)c1)nc1ccccc12
inactive: [15] 104 % of control | [4] 103 % of control | [5] 93 % of control | [6] 106 % of control | [7] 90 % of control | [9] 93 % of control

CCCCCOC(=S)S
inactive: dose: 9.37 mg/kg/injection, schedule: Q01DX009 (ip), vehicle: saline 100 % of control | dose: 18.75 mg/kg/injection, schedule: Q01DX009 (ip), vehicle: saline 110 % of control | dose: 37.5 mg/kg/injection, schedule: Q01DX009 (ip), vehicle: saline 98 % of control | [10] 109 % of control | [11] 103 % of control

Cc1cnc2c(=O)[nH]c(N)nc2n1
inactive: dose: 25.0 mg/kg/injection, schedule: Q04DX002 (ip), vehicle: Klucel (hydroxypropylcellulose) (HPC) 97 % of control | dose: 50.0 mg/kg/injection, schedule: Q04DX002 (ip), vehicle: Klucel (hydroxypropylcellulose) (HPC) 113 % of control | dose: 100.0 mg/kg/injection, schedule: Q04DX002 (ip), vehicle: Klucel (hydroxypropylcellulose) (HPC) 100 % of control

COB(CCCCB(OC)OC)OC
inactive: dose: 100.0 mg/kg/injection, schedule: Q01DX009 (ip), vehicle: saline sonified 96 % of control | [1] 100 % of control | dose: 200.0 mg/kg/injection, schedule: Q01DX009 (ip), vehicle: saline sonified 92 % of control | [2] 107 % of control | dose: 400.0 mg/kg/injection, schedule: Q01DX009 (ip), vehicle: saline sonified 87 % of control | [3] 94 % of control

CCCCN(CCCC)CP(=O)(CN(CCCC)CCCC)CN(CCCC)CCCC
inactive: [5] 93 % of control | [7] 96 % of control | [9] 111 % of control

CC(C)(C)N1CC(C(=O)c2ccccc2)C1c1ccc([N+](=O)[O-])cc1 (stereo not given)
inactive: [13] 96 % of control | [14] 104 % of control

O=[N+]([O-])c1ccc(NCSc2ccc(Cl)cc2)cc1
inactive: dose: 100.0 mg/kg/injection, schedule: Q04DX003 (ip), vehicle: other 101 % of control | dose: 200.0 mg/kg/injection, schedule: Q04DX003 (ip), vehicle: other 106 % of control | dose: 400.0 mg/kg/injection, schedule: Q04DX003 (ip), vehicle: other 108 % of control

CCN(CC)CCSC(=O)C(O)(c1ccccc1)c1ccccc1
inactive: dose: 75.0 mg/kg/injection, schedule: Q01DX001 (ip), vehicle: saline 100 % of control

CC(=O)CC(=O)Nc1cc(C)ccc1C
inactive: [1] 101 % of control | [2] 118 % of control | [3] 95 % of control
